One assay addresses T1, Human Calpain 1/NS1 (Homo sapiens, UniProt P07384).
T1 sequence (P07384 1-714): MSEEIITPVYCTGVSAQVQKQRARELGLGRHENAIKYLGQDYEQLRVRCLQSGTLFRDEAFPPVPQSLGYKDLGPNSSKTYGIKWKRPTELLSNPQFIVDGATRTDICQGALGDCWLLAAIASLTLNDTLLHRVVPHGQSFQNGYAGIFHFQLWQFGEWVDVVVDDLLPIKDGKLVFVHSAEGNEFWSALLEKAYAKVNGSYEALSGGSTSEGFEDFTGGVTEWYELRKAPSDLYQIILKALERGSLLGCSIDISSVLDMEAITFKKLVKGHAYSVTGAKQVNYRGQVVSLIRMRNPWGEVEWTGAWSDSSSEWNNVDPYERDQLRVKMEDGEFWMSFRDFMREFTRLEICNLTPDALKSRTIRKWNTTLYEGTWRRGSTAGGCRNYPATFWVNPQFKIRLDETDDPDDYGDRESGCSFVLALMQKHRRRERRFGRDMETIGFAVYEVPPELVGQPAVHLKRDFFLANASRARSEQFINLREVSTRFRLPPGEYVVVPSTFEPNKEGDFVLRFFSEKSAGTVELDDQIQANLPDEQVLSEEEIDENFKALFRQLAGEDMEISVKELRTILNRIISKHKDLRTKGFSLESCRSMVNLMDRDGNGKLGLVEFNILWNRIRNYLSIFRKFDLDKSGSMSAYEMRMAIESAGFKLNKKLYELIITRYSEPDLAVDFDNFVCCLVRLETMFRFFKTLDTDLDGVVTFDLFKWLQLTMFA
T1 sequence (P04632 1-268 partner): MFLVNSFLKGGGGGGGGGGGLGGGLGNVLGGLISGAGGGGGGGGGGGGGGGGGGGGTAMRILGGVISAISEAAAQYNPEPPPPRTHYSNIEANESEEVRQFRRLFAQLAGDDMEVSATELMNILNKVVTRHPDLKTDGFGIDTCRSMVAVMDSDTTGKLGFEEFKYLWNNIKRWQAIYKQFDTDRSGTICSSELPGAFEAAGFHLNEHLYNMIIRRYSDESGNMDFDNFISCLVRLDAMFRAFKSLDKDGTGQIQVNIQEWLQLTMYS
The assay can be described thus: Calpain inhibition continuous fluorescence (FRET) assay, Human Calpain 1/NS1. The format is biochemical. The conditions noted are these: read-out: Human Calpain 1/NS1 IC50. In outline:
(§1)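 Continuous FRET read (ex 490/em 520 nm, 10 min) of calpain 1, 2 or 9 cleaving an internally quenched 5-FAM peptide, triggered by substrate with CaCl2 after enzyme–inhibitor incubation at ambient 25 °C, pH 7.5 Tris/NaCl/DTT buffer. IC50 from initial rates (1-5 min) via 4-parameter fit.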

The next assay deals with T2, Human Calpain 2/NS1 (Homo sapiens, UniProt P17655).
T2 sequence (P17655 1-700): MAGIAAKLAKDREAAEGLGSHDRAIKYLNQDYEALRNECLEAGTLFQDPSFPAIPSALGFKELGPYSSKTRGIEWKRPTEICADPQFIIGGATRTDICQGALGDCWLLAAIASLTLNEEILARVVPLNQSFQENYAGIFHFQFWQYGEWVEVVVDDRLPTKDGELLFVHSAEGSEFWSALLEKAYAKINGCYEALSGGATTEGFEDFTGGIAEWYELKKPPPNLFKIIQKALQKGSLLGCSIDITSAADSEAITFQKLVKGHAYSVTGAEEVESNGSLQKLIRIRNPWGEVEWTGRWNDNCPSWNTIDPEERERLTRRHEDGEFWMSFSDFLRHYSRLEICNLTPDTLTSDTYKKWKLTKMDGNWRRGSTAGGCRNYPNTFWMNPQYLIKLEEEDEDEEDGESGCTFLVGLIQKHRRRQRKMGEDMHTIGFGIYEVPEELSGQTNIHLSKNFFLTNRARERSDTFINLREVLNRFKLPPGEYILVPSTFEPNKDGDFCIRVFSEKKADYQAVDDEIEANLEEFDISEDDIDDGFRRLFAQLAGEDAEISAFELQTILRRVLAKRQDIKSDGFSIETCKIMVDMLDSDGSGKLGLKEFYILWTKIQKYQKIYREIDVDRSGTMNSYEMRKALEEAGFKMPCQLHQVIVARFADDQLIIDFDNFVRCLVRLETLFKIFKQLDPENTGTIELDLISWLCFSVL
T2 sequence (P04632 1-268 partner): T1 sequence (P04632 1-268 partner)
The assay can be described thus: Calpain inhibition continuous fluorescence (FRET) assay, Human Calpain 2/NS1. The format is biochemical. The conditions noted are these: read-out: Human Calpain 2/NS1 IC50. In outline:
as §1

The target in another assay is T3, Human Calpain 9/NS1 (Homo sapiens, UniProt O14815).
T3 sequence (O14815 1-690): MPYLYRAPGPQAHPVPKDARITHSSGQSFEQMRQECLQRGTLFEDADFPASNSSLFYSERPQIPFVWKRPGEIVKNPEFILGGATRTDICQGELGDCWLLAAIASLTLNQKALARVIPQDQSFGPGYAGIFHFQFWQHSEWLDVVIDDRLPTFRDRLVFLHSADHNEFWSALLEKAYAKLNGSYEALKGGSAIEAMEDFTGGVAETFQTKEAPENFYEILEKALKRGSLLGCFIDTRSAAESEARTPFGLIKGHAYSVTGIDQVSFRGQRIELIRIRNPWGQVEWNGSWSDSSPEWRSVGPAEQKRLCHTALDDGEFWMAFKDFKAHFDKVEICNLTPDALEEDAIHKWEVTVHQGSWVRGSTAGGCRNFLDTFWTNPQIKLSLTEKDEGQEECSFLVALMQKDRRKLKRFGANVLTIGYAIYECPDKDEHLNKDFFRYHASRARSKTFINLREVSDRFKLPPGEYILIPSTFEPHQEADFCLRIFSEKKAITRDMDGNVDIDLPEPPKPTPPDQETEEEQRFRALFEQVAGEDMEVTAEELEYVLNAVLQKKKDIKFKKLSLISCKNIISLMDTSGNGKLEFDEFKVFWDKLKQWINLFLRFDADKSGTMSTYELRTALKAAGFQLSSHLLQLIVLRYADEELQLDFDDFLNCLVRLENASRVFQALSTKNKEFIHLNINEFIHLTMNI
T3 sequence (P04632 1-268 partner): T1 sequence (P04632 1-268 partner)
The assay can be described thus: Calpain inhibition continuous fluorescence (FRET) assay, Human Calpain 9/NS1. The format is biochemical. The conditions noted are these: read-out: Human Calpain 9/NS1 IC50. In outline:
as §1

Assay [1] relates to Calpain activity in SH-SY5Y cells (SBDP-150). The assay can be described thus: SH-SY5Y Spectrin western blot assay (SBDP-150 breakdown product, A23187-induced). The format is cell-based. The conditions noted are these: Homo sapiens, SH-SY5Y cells, read-out: SH-SY5Y Spectrin IC50. For orientation: A western blot detects proteins with antibodies after separation by electrophoresis.

The test system of assay [2] is Calpain activity in SH-SY5Y cells. The assay can be described thus: SH-SY5Y + AMC fluorescence assay (Suc-LLVY-AMC substrate). The format is cell-based. The conditions noted are these: read-out: SH-SY5Y + AMC IC50.
Where [3] appears, read: A23187-induced SBDP-150, western blot.
[4] abbreviates: Column D, A23187-induced SBDP-150.

The structures appear in SMILES notation. Read-outs that look alike come from different tables or passages of the source.

As for `NC(=O)C(=O)C(Cc1ccccc1)NC(=O)c1oc(C(F)(F)F)nc1-c1ccccc1F` (stereo not drawn) [Compound 358, N-(4-amino-3,4-dioxo-1-phenylbutan-2-yl)-4-(2-fluorophenyl)-2-(trifluoromethyl)oxazole-5-carboxamide], the IC50 at Human Calpain 1/NS1 was below 3 µM; on Human Calpain 2/NS1, below 3 µM; at Human Calpain 9/NS1, below 3 µM; in assay [1] (setting [3]), 10 to 25 µM; in assay [2], below 10 µM.
`Cc1cc(C(=O)N[C@@H](Cc2ccccc2)C(=O)C(N)=O)n(-c2nc3ccccc3n2C)n1` [Compound 294, (S)—N-(4-amino-3,4-dioxo-1-phenylbutan-2-yl)-3-methyl-1-(1-methyl-1H-benzo[d]imidazol-2-yl)-1H-pyrazole-5-carboxamide]: the IC50 was 3 to 10 µM at Human Calpain 1/NS1 (Column A); 3 to 10 µM at Human Calpain 2/NS1 (Column B); below 3 µM at Human Calpain 9/NS1 (Column C); 10 to 25 µM in assay [1] (setting [4]); above 25 µM in assay [2] (Column E).
`CCOCc1ccc(-n2nc(C)cc2C(=O)N[C@@H](Cc2ccccc2)C(=O)C(N)=O)cc1` [Compound 227, (S)—N-(4-amino-3,4-dioxo-1-phenylbutan-2-yl)-1-(4-(ethoxymethyl)phenyl)-3-methyl-1H-pyrazole-5-carboxamide]: the IC50 at Human Calpain 1/NS1 (Column A) was below 3 µM; on Human Calpain 2/NS1 (Column B), below 3 µM; at Human Calpain 9/NS1 (Column C) it was below 3 µM; in assay [1] (setting [4]) it was below 10 µM; in assay [2] (Column E), above 25 µM.
Turning to `Cc1cc(C(=O)NC(C=O)Cc2ccccc2)n(-c2ccccn2)n1` (stereo not drawn) [Compound 398, 3-methyl-N-(1-oxo-3-phenylpropan-2-yl)-1-(pyridin-2-yl)-1H-pyrazole-5-carboxamide], the IC50 at Human Calpain 1/NS1 was below 3 µM; on Human Calpain 2/NS1 it was below 3 µM; on Human Calpain 9/NS1, below 3 µM; in assay [1] (setting [3]), above 25 µM; in assay [2], above 25 µM.
With `Cc1cc(C(=O)NC(Cc2ccccc2)C(=O)C(N)=O)n(-c2ccc(CNC(=O)c3ccc(F)cc3)cc2)n1` (stereo not drawn) [Compound 496, N-(4-amino-3,4-dioxo-1-phenylbutan-2-yl)-1-(4-((4-fluorobenzamido)methyl)phenyl)-3-methyl-1H-pyrazole-5-carboxamide], the IC50 on Human Calpain 1/NS1 was below 3 µM; at Human Calpain 2/NS1, below 3 µM; on Human Calpain 9/NS1, below 3 µM; in assay [1] (setting [3]), 10 to 25 µM; in assay [2] it was above 25 µM.
Regarding `Cc1cc(C(=O)N[C@@H](Cc2ccccc2)C(=O)C(N)=O)n(-c2ccc(CNC(=O)c3ccccc3)cc2)n1` [Compound 154, (S)—N-(4-amino-3,4-dioxo-1-phenylbutan-2-yl)-1-(4-(benzamidomethyl)phenyl)-3-methyl-1H-pyrazole-5-carboxamide], the IC50 is below 3 µM on Human Calpain 1/NS1 (Column A); below 3 µM at Human Calpain 2/NS1 (Column B); below 3 µM at Human Calpain 9/NS1 (Column C); 10 to 25 µM in assay [1] (setting [4]); above 25 µM in assay [2] (Column E).
For the compound `NC(=O)C(=O)C(Cc1ccccc1)NC(=O)c1cn(C(F)F)nc1-c1cccc(F)c1` (stereo not drawn) [Compound 381, N-(4-amino-3,4-dioxo-1-phenylbutan-2-yl)-1-(difluoromethyl)-3-(3-fluorophenyl)-1H-pyrazole-4-carboxamide], the IC50 on Human Calpain 1/NS1 was below 3 µM; on Human Calpain 2/NS1 it was below 3 µM; on Human Calpain 9/NS1 it was below 3 µM; in assay [1] (setting [3]), below 10 µM; in assay [2] it was below 10 µM.
As for `NC(=O)C(=O)C(Cc1ccccc1)NC(=O)c1cn(C(F)F)nc1-c1cncc(F)c1` (stereo not drawn) [Compound 586, N-(4-amino-3,4-dioxo-1-phenylbutan-2-yl)-1-(difluoromethyl)-3-(5-fluoropyridin-3-yl)-1H-pyrazole-4-carboxamide], the IC50 was below 3 µM on Human Calpain 1/NS1; below 3 µM on Human Calpain 2/NS1; below 3 µM on Human Calpain 9/NS1; 10 to 25 µM in assay [1] (setting [3]); 10 to 25 µM in assay [2].
Take `COc1cncc(-c2nn(C)cc2C(=O)NC(Cc2ccccc2)C(=O)C(N)=O)c1` (stereo not drawn) [Compound 515, N-(4-amino-3,4-dioxo-1-phenylbutan-2-yl)-3-(5-methoxypyridin-3-yl)-1-methyl-1H-pyrazole-4-carboxamide]: the IC50 was below 3 µM on Human Calpain 1/NS1; below 3 µM on Human Calpain 2/NS1; below 3 µM at Human Calpain 9/NS1; above 25 µM in assay [1] (setting [3]); above 25 µM in assay [2].
For the compound `NC(=O)C(=O)C(Cc1ccccc1)NC(=O)c1cc(C(F)(F)F)sc1-c1ccccc1` (stereo not drawn) [Compound 286], the IC50 was below 3 µM on Human Calpain 1/NS1 (Column A); below 3 µM at Human Calpain 2/NS1 (Column B); below 3 µM at Human Calpain 9/NS1 (Column C); below 10 µM in assay [1] (setting [4]); above 25 µM in assay [2] (Column E).
Take `O=C(NC1CC1)C(=O)C(Cc1ccccc1)NC(=O)c1cnoc1-c1ccccc1` (stereo not drawn) [Compound 461, N-(4-(cyclopropylamino)-3,4-dioxo-1-phenylbutan-2-yl)-5-phenylisoxazole-4-carboxamide]: the IC50 at Human Calpain 1/NS1 was below 3 µM; at Human Calpain 2/NS1, below 3 µM; at Human Calpain 9/NS1, below 3 µM; in assay [1] (setting [3]), below 10 µM; in assay [2], above 25 µM.
Take `Cc1cc(C(=O)N[C@@H](Cc2ccccc2)C(=O)C(N)=O)n(-c2cccc(CNC(=O)Cc3ccccc3)c2)n1` [Compound 144, (S)—N-(4-amino-3,4-dioxo-1-phenylbutan-2-yl)-3-methyl-1-(3-((2-phenylacetamido)methyl)phenyl)-1H-pyrazole-5-carboxamide]: the IC50 was below 3 µM on Human Calpain 1/NS1 (Column A); below 3 µM at Human Calpain 2/NS1 (Column B); below 3 µM at Human Calpain 9/NS1 (Column C); below 10 µM in assay [1] (setting [4]); below 10 µM in assay [2] (Column E).
